Where “and” joins values, the source holds several entries; their conditions need not be identical. Identical values can stand only once.
Columns and labels:
[1] = Relaxation time measurements (longitudinal relaxivity r1); assay type: physicochemical
From the text: The efficiency of a contrast agent in reducing the longitudinal relaxation time of water protons is defined in terms as relaxivity (mM^−1 s^−1) (14). It has been predicted by Solomon-Bloembergen-Morgan theory that a slow molecule tumbling of an MRI agent causes an increase in rotational correlation time, Tr, which in turn results in increase in relaxivity (14, 15). A common approach to increase relaxivity by slowing down the molecular tumbling is to attach Gd(III) complexes to a macromolecule through rigid linkages (12,16). The relaxivity of the monomeric DOTA-Gd(III) (DOTA is 1,4,7,10-tetraazacyclododecane-N,N,N″,N″-tetraacetic acid) used in the clinic is shown for comparison (17). […] Both the Zn-Pz-Gd(III) and Cu-Pz-Gd(III) had higher longitudinal relaxivity than DOTAGd(III).
Solutions of M-Pz-Gd(III) (M=Zn, Cu) conjugates were dissolved in 500 μL of filtered, deionized H20 (18.2 MΩ·cm) for T1 acquisition. Relaxation times were measured on a Bruker mq60 NMRanalyzer equipped with Minispec v2.51 Rev.00/NT software (Bruker Biospin, Billerica, Mass., USA) operating at 1.41 T (60 MHz) and 37° C. T1 relaxation times were measured using an inversion recovery pulse sequence (T1—ir_mb) using the following parameters: 4 scans per point, 10 data points for fitting, mono-exponential curve fitting, phase cycling, 10 ms first pulse separation, and a recycle delay and final pulse separation≧5 T1. The gadolinium concentrations of each solution were determined using ICP-MS. The inverse of the longitudinal relaxation time (1/ T1, s^−1) was plotted against gadolinium concentration (mM) and fitted to a straight line with an R^2>0.99. The slope of the fitted line was recorded as the relaxivity, r1.

[2] = Octanol-water partition coefficients by ICP-MS; assay type: physicochemical; conditions: 1:1 water:1-octanol, 48 hours, Gd by ICP-MS
Experimental: Octanol-water partition coefficients (log P) were measured by ICP-MS to determine the hydrophilicity of the Pz-Gd(III) conjugates (4d, 18). The hydrophilicity of a molecule dictates cellular permeability where a balance in amphiphilicity is desired for ease of aqueous administration and maximum cellular uptake (19). Cu-Pz-Gd(III) is slightly more hydrophobic than Zn-Pz-Gd(III) and both conjugates are more hydrophobic than DOTA-Gd(III).
DOTA-Gd(I I I), Zn-Pz-Gd(III), and Cu-Pz-Gd(III) (0.5 mg) were dissolved in 1 mL of a 1:1 mixture of water:1-octanol, respectively. After shaking for 30 seconds, these tubes were placed on a rotator for gentle mixing to equilibrate for 48 hours. Gd(III) concentration in each layer was determined by ICP-MS. Partition coefficients were calculated from the equation log P=log(Co/Cw), where log P is the logarithm of the partition coefficient, Co is the concentration of Gd in the 1-octanol layer, and Cw is the concentration of Gd in the water layer.

MDA-MB-231 cells = test: MR imaging of cell pellets at 9.4 T; assay type: cell-based
Experimental: To determine whether the cellular uptake and molecular relativity of Cu-Pz-Gd(III) provides an effective MR contrast agent, MDA-MB-231 breast tumor cells were treated with M-Pz-Gd(III) complexes (200 μM) and centrifuged into capillaries (about 1.0 mm diameter) prior to MR imaging. […] The amount of Gd(III) per cell was determined by ICP-MS for each pellet and, as expected, T1 is inversely proportional to Gd(III) content. (FIG. 2B).
9.4 T MR imaging and T1/T2 measurements were performed on a Bruker Biospec 9.4 T imaging spectrometer fitted with shielded gradient coils at 25° C. For cell pellets images, about 2.0×10^6 MDA-MB-231 cells were incubated in 25-cm^2 T-flasks with either Cu-Pz-Gd(III), Zn-Pz-Gd(III) or DOTA-Gd(III) (400 μM wrt Gd(III)) for 24 hours, rinsed with DPBS (3×5 mL/flask), and harvested with 500 μL, of a 0.25-vol % trypLE Express solution. […] The bottom sections of the flame-sealed pipets were then scored with a glass scribe, broken into small capillaries, then imaged using a RF RES 400 1H 089/038 quadrature transmit receive 23-mm volume coil (Bruker BioSpin, Billerica, Mass., USA).
Spin-lattice relaxation times (T1) were measured using a […] (RARE-VTR) T1-map pulse sequence, with static TE (10 ms) and variable TR (100, 200, 400, 500, 750, 1000, 2500, 5000, 7500, and 10000 ms) values. […]

Substance: Cu[Pz(C19H28N8O7Gd)2]. Pz=18,21-bis(2-(1H-1,2,3-triazole-4-yl) ethoxy)-tris-[1,4-dioxino[g,l,q](2R,3R)-2,3-dimethoxy-2,3-dimethyll 25H,27H-benzo[b]porphyrazine; C19H28N8O7Gd=N-methyl-2-aminoacetamide-4,7,10-tris(carboxymethyl)-1,4,7,10-tetraazacyclododecylgadolinium(III)) [Cu-Pz-Gd(III)]
- solution-phase ionic relaxivity relative to DOTA-Gd(III) ([1]; compared with clinically-used monomeric DOTA-Gd(III)): about four times greater
- Ionic r1 ([1]; per Gd(III), water, 1.41 T (60 MHz), 37° C.): 11.5 mM^−1 S^−1
- Molecular r1 ([1]; per molecule (2 Gd(III)), water, 1.41 T (60 MHz), 37° C.): 23.0 mM^−1 S^−1
- solution phase molecular relaxivity (r1) ([1]; text of b56, unit inferred): 23 mM⁻¹ s⁻¹
- log P [2]: −2.41
- MR image intensity of cell pellets (MDA-MB-231 cells; MDA-MB-231, 200 μM, vs Zn-Pz-Gd(III), DOTA-Gd(III) or vehicle): significant increases in image intensity
- contrast to noise ratio (CNR) (MDA-MB-231 cells; MDA-MB-231 cell pellets, 200 μM complex (400 μM wrt Gd(III)), 24 hours, 9.4 T, 25° C.): 9.336±0.335 and 9.336

— patent publication US20160031909A1, “PORPHYRAZINE OPTICAL AND DUAL OPTICAL/ MR CONTRAST AND THERAPEUTIC AGENTS” (HOFFMAN/BARRETT, LLC, priority 2013, published 2016)
